Assay results taken from patent US9732084B2, “Pyrrolobenzodiazepines used to treat proliferative diseases” (priority 2010, dated 2017).

Legend:
Format in all cases: cell-based
[1] = tested on: 786-O; test: Free drug in vitro cytotoxicity (resazurin); settings: Homo sapiens, 786-0, 786-O cells, 96 hours
Description: (§1) Cells as detailed below were collected and plated in 96 well black-sided plates at a density of 10,000 cells/well in 150 μL of medium. Serial dilutions of the test article (50 μL) were added, and incubation was carried out for 92 hours at 37° C. After addition of test compound, cultures were incubated to 96 hours at 37° C. Resazurin (0.25 mM, 50 μL, Sigma, St. Louis, Mo.) in medium was added and incubation was continued for 4 h. The plates were read on a Fusion HT microplate reader (Packard, Meriden, Conn.) using an excitation wavelength of 525 nm and an emission wavelength of 590 nm. Data from all assays were reduced using GraphPad Prism Version 4 for Windows (GraphPad Software, San Diego, Calif.). The IC50 concentrations compared to untreated control cells were determined using a 4 parameter curve fits.

[2] = tested on: Caki-1; test: Free drug in vitro cytotoxicity (resazurin); settings: Homo sapiens, Caki-1 cells, 96 hours
Description: as §1

[3] = tested on: MCF-7; test: Free drug in vitro cytotoxicity (resazurin); settings: Homo sapiens, MCF7, MCF-7 cells, 96 hours
Description: as §1

[4] = tested on: TF1a; test: Free drug in vitro cytotoxicity (resazurin); settings: TF-1a, TF1a cells, 96 hours
Description: as §1

[5] = tested on: 786-O; test: Alternative cell assay (Cell Titer Glo cytotoxicity); settings: Homo sapiens, 786-0, 786-O cells, 48 hours
Description: (§2) Cells were plated in 150 μL growth media per well into black-sided clear-bottom 96-well plates (Costar, Corning) and allowed to settle for 1 hour in the biological cabinet before placing in the incubator at 37° C., 5% CO2. The following day, 4× concentration of drug stocks were prepared, and then titrated as 10-fold serial dilutions producing 8-point dose curves and added at 50 μl per well in duplicate. Cells were then incubated for 48 hours at 37° C., 5% CO2. Cytotoxicity was measure by incubating with 100 μL Cell Titer Glo (Promega) solution for 1 hour, and then luminescence was measured on a Fusion HT plate reader (Perkin Elmer). Data was processed with Excel (Microsoft) and GraphPad (Prism) to produce dose response curves and IC50 values were generated and data collected.

[6] = tested on: BxPC-3; test: as above; settings: Homo sapiens, BxPC-3 cells, 48 hours
Description: as §2

[7] = tested on: Caki-1; test: as above; settings: Homo sapiens, Caki-1 cells, 48 hours
Description: as §2

[8] = tested on: HEL; test: as above; settings: Homo sapiens, HEL cells, 48 hours
Description: as §2

[9] = tested on: HL-60; test: as above; settings: Homo sapiens, HL-60 cells, 48 hours
Description: as §2

[10] = tested on: MCF-7; test: as above; settings: Homo sapiens, MCF7, MCF-7 cells, 48 hours
Description: as §2

Structure (SMILES)	IC50 [1]	IC50 [2]	IC50 [3]	IC50 [4]	IC50 [5]	IC50 [6]	IC50 [7]	IC50 [8]	IC50 [9]	IC50 [10]
COc1cc2c(cc1OCCCOc1cc3c(cc1OC)C(=O)N1C=C(c4cccc(N)c4)C[C@H]1C=N3)N=C[C@@H]1CC(C)=CN1C2=O [Compound 18, (S)-2-(3-aminophenyl)-7-methoxy-8-(3-((S)-7-methoxy-2-methyl-5-oxo-5,11a-dihydro-1H-pyrrolo[2,1-c][1,4]benzodiazepine-8-yloxy)propoxy)-1H-pyrrolo[2,1-c][1,4]benzodiazepine-5(11aH)-one]	1000 pM	600 pM	2000 pM	700 pM						
COc1cc2c(cc1OCCCOc1cc3c(cc1OC)C(=O)N1C=C(c4ccc(N)cc4)C[C@H]1C=N3)N=C[C@@H]1CC(C)=CN1C2=O [Compound 11, (S)-2-(4-aminophenyl)-7-methoxy-8-(3-((S)-7-methoxy-2-methyl-5-oxo-5,11a-dihydro-1H-pyrrolo[2,1-c][1,4]benzodiazepine-8-yloxy)propoxy)-1H-pyrrolo[2,1-c][1,4]benzodiazepine-5(11aH)-one]	100 pM	60 pM	200 pM	70 pM	850 pM	3000 pM	400 pM	60 pM	100 pM	7000 pM
CC=CC1=CN2C(=O)c3cc(OC)c(OCCCCCOc4cc5c(cc4OC)C(=O)N4C=C(c6cccc(N)c6)C[C@H]4C=N5)cc3N=C[C@@H]2C1 [Compound 15, (S)-2-(3-aminophenyl)-8-(5-((S)-2-propenyl-7-methoxy-5-oxo-5,11a-dihydro-1H-pyrrolo[2,1-c][1,4]benzodiazepine-8-yloxy)pentyloxy)-7-methoxy-1H-pyrrolo[2,1-c][1,4]benzodiazepine-5(11aH)-one]			30 pM							
